Measured values as given in article PMC12598698, “Synergistic Cancer Metabolic Therapy via Co-Delivery of 3‑Bromopyruvate and Temozolomide with a Supramolecular Shuttle” (ACS Applied Materials & Interfaces, 2025).
Where “and” joins values, the source holds several entries; their conditions need not be identical. Equal entries are not always repeated.

How the values were obtained:
U-87 MG cells (2D) [1] = experiment: 2D U-87 cell viability assay (PrestoBlue); type: cell-based, human
Protocol: Cells were seeded in 48-well plates at approximately 3 × 10^4 cells per well in DMEM culture medium supplemented with 10% FBS. U-87 MG cell lines from human brain were initially cultured in 25 cm^2 flasks, using DMEM supplemented with FBS 10%, P/S 2%, and L/GLUT 2 mM, in a humidified incubator (37 °C/5% CO2). After 24 h, once cells adhered, they were treated in parallel with NF-BrP (BrP, 5 μM), NF-BrP-TMZ (BrP and TMZ, 5 μM), and BrP at concentrations of 30, 50, 100, and 150 μM, for 24, 48, and 72 h. Untreated cells served as the controls. All experiments were performed under standard cell culture conditions (95% relative humidity, 5% CO2, 37 °C). At the end of each incubation time, cell viability was assessed using the PrestoBlue assay (ThermoFisher Scientific), according to the manufacturer’s protocol. Cells were incubated with the reagent for 1 h, and absorbance was obtained at 570 nm with 600 nm as the reference wavelength with a BioTek Synergy HT microplate reader. Results are expressed as the percentage of viable cells relative to the untreated controls.

[2] = test system: mitochondria isolated from rat brain; experiment: EPR analysis of ROS production upon mitochondria respiration (Mito-TEMPO); type: biochemical; conditions: succinate without rotenone, 37 °C, 8 min preincubation
Protocol: Investigation of the redox status in mitochondria was performed using the Mito-TEMPO paramagnetic spin probe, which is a mitochondria-penetrating nitroxide radical that allows evaluation of the level of ROS (mainly superoxides) produced during respiration. The same protocol as described in the previous subsection was followed with the addition of Mito-TEMPO (0.1 mM) during the preincubation with BrP, NF, or NF-Br. In this case succinate was used as a respiratory substrate in the absence of rotenone in order to allow the formation of ROS via the electron reverse from complex II to complex I. At predetermined time intervals, 20 μL of each sample was loaded into glass capillaries and flame-sealed. To guarantee thermal stability, the sealed capillaries were subsequently placed inside a standard 4 mm quartz EPR-sample tube that had been lightly lubricated with silicone oil. As described in a previous subsection, a 9 GHz Bruker Elexsys E500 spectrometer was used to record the EPR spectra. During acquisition, the sample temperature was maintained at 37 °C by directing thermostated nitrogen gas through a quartz dewar. Mito-TEMPO EPR signals were analyzed by double integration using the Bruker software package.

[3] = test system: mitochondria isolated from rat brain; experiment: Mitochondrial respiration (Clark-type electrode); type: biochemical; conditions: 5 μM, 8 min preincubation, 37 °C, ADP 300 μM
Protocol: Male Wistar rats (275–300 g) were obtained from Envigo RMS Srl (Udine, Italy). Animals were housed in a temperature-controlled environment (22 °C) under a 12:12 h light–dark cycle, with food and water available ad libitum. All procedures were conducted in strict accordance with European guidelines for the care and use of laboratory animals. Every attempt was made to reduce the suffering and discomfort experienced by the animals. Experimental protocols were approved by the Committee on the Ethics of Animal Experiments of the University of Naples Federico II (Italy) and the Italian Minister of Health (protocol number 776/2021-Pr). Rats were anesthetized by ip injection of tiopental (40 mg/100 body weight) and euthanized by decapitation. Brains were immediately excised, weighed, and processed for mitochondrial isolation, following the method described by Sumbalova et al. Briefly, brain tissues were immersed in ice-cold isolation buffer (330 mM sucrose, 10 mM Tris-HCl, 1 mM EDTA, and 2.5 g/L fatty acid-free BSA, pH 7.4) and homogenized using a Potter-Elvehjem homogenizer. […] Mitochondrial respiration rate was measured polarographically using a Clark-type electrode (Clark-type electrode, Oxygraph system, Hansatech Instruments Ltd., UK). […]

U-87 MG cells (2D) [4] = conditions: highest tested concentration 250 μM, 72 h; ref previous work; cited from earlier work
Protocol: Combining drugs with different mechanisms of action targeting distinct cellular pathways can help overcome resistance and produce a synergistic effect, thereby enhancing the overall anticancer efficacy. The combined cytotoxic effect of the nanofiber NF-TMZ-BrP, cofunctionalized with BrP and TMZ (both at 5 μM), was evaluated in 2D and 3D-U87 cells at 24, 48, and 72 h. […] After 72 h, the cytotoxic effect became more pronounced, with appro ...

| Structure (SMILES) | reduction of U-87 cell viability by free BrP at 150 μM (U-87 MG cells (2D) [1]; free drug 150 μM, prolonged exposure) | concentrations at which a decrease in U-87 cell viability is observed (U-87 MG cells (2D) [1]; free drug, 24, 48 and 72 h) | effect on mitochondrial ROS production (slope of mito-TEMPO decay) [2] | inhibition of ADP-stimulated respiration, pyruvate + malate [3] | inhibition of ADP-stimulated respiration, succinate + rotenone [3] | reduction in cell viability by free TMZ (U-87 MG cells (2D) [4]) [%] |
| --- | --- | --- | --- | --- | --- | --- |
| O=C(O)C(=O)CBr [BrP, 3-bromopyruvic acid] | no more than 20% | 50 to 150 µM and > 50 µM | reduces the slope in a dose-dependent manner | about 50% | about 50% | – |
| Cn1nnc2c(C(N)=O)ncn2c1=O [TMZ, temozolomide] | – | – | – | – | – | 40 |
